# Laboratory results as given in the NIST ThermoML archive (doi:10.1016/j.fluid.2015.06.029).
# ± gives the expanded uncertainty stated by the source.
# Assay: refractive index (Na D-line) (dimensionless)
# Conditions: 303.15 K; 101.33 kPa; Liquid; Standard Abbe refractometry
row,Structure (SMILES),refractive index
1,CC(C)C(=O)O [2-methylpropanoic acid],1.3893 ± 0.0009
2,CCCC(=O)O [butanoic acid],1.3947 ± 0.0009
3,CCCCC [pentane],1.3523 ± 0.0009
4,CCC(=O)O [propanoic acid],1.3829 ± 0.0009
5,O=S1(=O)CCCC1 [sulfolane],1.4823 ± 0.0009

# Next, values leading:
row,refractive index,Structure (SMILES)
1,1.3997 ± 0.0009,CC(C)CC(=O)O [3-methylbutanoic acid]
2,1.3716 ± 0.0009,CC(=O)O [acetic acid]
3,1.4047 ± 0.0009,CCCCC(=O)O [pentanoic acid]
